Reference: US6241965A, “Somatostatin derivatives and their radiolabelled products” (Diatide, Inc., priority 1996, dated 2001)
Starred links: 1 amine or outer side, 2 acyl side, 3 side chain; linkers in the order of their positions; H or OH if unused. Positions of bridges follow the written chain, without caps; N, C: chain ends. Non-standard residues stand in square brackets, D forms with d. Residues, ends and D or L forms follow the SMILES beside them. Chains are numbered I, II in the order given. *: point of attachment. DTPA = O=C(O)CN(CCN(CC(=O)O)CC(=O)O)CCN(CC(=O)O)CC(=O)*; X1 = O=C(C(=O)*)[C@@H](O)[C@H](O)[C@@H](O)CO; Phe(4-Cl) = N[C@@H](Cc1ccc(Cl)cc1)C(=O)O; 2Nal = N[C@@H](Cc1ccc2ccccc2c1)C(=O)O; d2Nal = N[C@H](Cc1ccc2ccccc2c1)C(=O)O; εLys = N[C@@H](CCCCN[*:1])C(=O)[*:2]; NMeF = CN[C@@H](Cc1ccccc1)C(=O)O; hCys = N[C@@H](CCS)C(=O)O; X2 = O=C(C[*:1])[*:2]; Acm = CC(=O)NC*

molecular target: T1, somatostatin receptors (Rattus norvegicus, UniProt P30680); assay: Inhibition of binding of (125I-Tyr11)somatostatin-14 to AR42J rat pancreatic tumor cell membranes; conditions: (Re=O)-complexed peptides; displacement of (125I-Tyr11)somatostatin-14, AR42J cell membranes
T1 construct: endogenous in cells; host or cells: AR42J rat pancreatic tumor cell membranes
T1 sequence (P30680 whole entry): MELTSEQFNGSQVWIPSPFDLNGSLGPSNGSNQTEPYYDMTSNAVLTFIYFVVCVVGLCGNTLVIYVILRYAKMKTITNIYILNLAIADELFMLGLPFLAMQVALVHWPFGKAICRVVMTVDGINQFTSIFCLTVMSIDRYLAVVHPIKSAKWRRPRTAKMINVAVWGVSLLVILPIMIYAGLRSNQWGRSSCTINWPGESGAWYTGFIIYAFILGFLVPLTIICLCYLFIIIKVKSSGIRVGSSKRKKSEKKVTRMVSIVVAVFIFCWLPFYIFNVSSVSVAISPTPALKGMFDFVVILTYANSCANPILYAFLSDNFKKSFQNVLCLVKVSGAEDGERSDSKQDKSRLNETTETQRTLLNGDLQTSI
Experimental: Inhibition of Binding of (^125 I-Tyr^11)somatostatin-14 to AR42J Rat Pancreatic Tumor Cell Membranes
The rat pancreatic tumor cell line AR42J which expresses the somatostatin receptor was cultured in Dulbecco's minimal essential media (DMEM) supplemented with 10% fetal bovine serum (FBS) and 8 mM glutamine in a humdified 5% CO2 atmosphere at 37° C. in T-flasks. Harvested cells were homogenized in cold 50 mM Tris-HCl buffer (pH 7.4) and the homogenate then centrifuged at 39,000g for 10 min at 4° C. Pellets were washed once with buffer and then resuspended in an ice-cold solution of 10mM Tris-HCl (pH 7.4). Equal aliquots of this cell membrane preparation were incubated with (^125 I-Tyr^11)somatostatin-14 (at a final concentration of 0.5nM and 750,000cpm/mL, at a specific activity of 2000Ci/mmol, Amersham, Arlington Heights, Ill.) and peptide at a final concentration of from 10^-11 M to 10^-6 M in a solution of 50 mM HEPES (pH 7.4) containing 1% bovine serum albumin (BSA), 5 mM MgCl2, Trasylol (200,000 International Units), bacitracin (0.02 mg/mL) and phenylmethylsulfonylfluoride (0.02 mg/mL) for 25 min at 30° C. Using a filtration manifold, this mixture was filtered through a polyethyleneimine-washed GC/F filter (Whatman, Maidstone, England), and the residue remaining on the filter washed thrice with 5 mL cold HEPES buffer. The filter and a sample of the filter washings were then counted in a gamma counter. To assess non-specific binding, the assay was performed in the presence of unlabeled somatostatin-14 at 200 nM. Data analysis including Hill plots of the data provided inhibition constants (see Bylund & Yamamura, "Methods of receptor binding", in Methods in Neurotransmitter Receptor Analysis, Yamamura et al., eds., Raven Press: New York, 1990).

Molecule | Ki
(DTPA).Aca.FD.Cpa.YWD KTFT(ε-K)GC.amide | 8.2 nM
(DTPA).FD.Cpa.YWD KTFT(ε-K)GC.amide | 7.9 nM
(DTPA).NalD.Cpa.YWD KTFT(ε-K)GC.amide | 11 nM
Ac.FD FYWD KTFTGGG(ε-K)KC.amide | 6.1 nM
Hca.NalD.Cpa.YWD KTFT(ε-K)GCKK, amide | 8 nM
KD KKKFD.Cpa.YWD KTF.Nal.(ε-K)GCDDDD.amide | 8.1 nM

Second part, the molecule after the results:

Ki | Molecule
3.8 nM | KDKKK.NalD.Cpa.YWD KTFT(ε-K)GCKDKD.amide
3.7 nM | C[C@@H](O)[C@H](NC(=O)[C@H](Cc1ccccc1)NC(=O)[C@@H](NC(=O)[C@H](CCCCN)NC(=O)[C@@H](Cc1c[nH]c2ccccc12)NC(=O)[C@H](Cc1ccc(O)cc1)NC(=O)[C@H](Cc1ccc(Cl)cc1)NC(=O)[C@@H](Cc1ccccc1)NC(=O)C(=O)[C@@H](O)[C@H](O)[C@@H](O)CO)[C@@H](C)O)C(=O)NCCCC[C@H](N)C(=O)NCC(=O)N[C@@H](CS)C(N)=O [(2-ketogulonyl)FD.Cpa.YWD KTFT(ε-K)GC.amide] (X1-[dF][Phe(4-Cl)]Y[dW]KTFT[εLys]GC-NH2)
3.1 nM | CC(=O)NCSC[C@H](NC(=O)CNC(=O)[C@H](CSCNC(C)=O)NC(=O)[C@@H](NC(=O)[C@H](Cc1ccccc1)NC(=O)[C@@H](NC(=O)[C@H](CCCCN)NC(=O)[C@@H](Cc1c[nH]c2ccccc12)NC(=O)[C@H](Cc1ccc(O)cc1)NC(=O)[C@H](Cc1ccc(Cl)cc1)NC(=O)[C@@H](Cc1ccc2ccccc2c1)NC(=O)CN(CCN(CCN(CC(=O)O)CC(=O)O)CC(=O)O)CC(=O)O)[C@@H](C)O)[C@@H](C)O)C(N)=O [(DTPA)NalD.Cpa.YWD KTFTCAcm GCAcm.amide] ({DTPA}-[d2Nal][Phe(4-Cl)]Y[dW]KTFTC(Acm)GC(Acm)-NH2)
2.2 nM | NalD.Cpa.YWD KTFT(ε-K)GCKK.amide
1.6 nM | KD KK.NalD.Cpa.YWD KTFT(ε-K)GCDD.amide
1.5 nM | KD KK.NalD.Cpa.YWD KTFT(ε-K)GCDDD.amide
1.4 nM | Ac.DD DFD.Cpa.YWD KTFT(ε-K)GCKK.amide
0.5 nM | DD DFD.Cpa.YWD KTFT(ε-K)GCKK.amide
0.37 nM | FD.Cpa.YWD KTC(ε-K)CGC.amide
0.36 nM | FD.Cpa.YWD KTC(ε-K)GC.amide
0.13 nM | FD.Cpa.YWD KTC(ε-K)GCKK.amide

same assay, conditions: peptides not metal-complexed; displacement of (125I-Tyr11)somatostatin-14, AR42J cell membranes

Ki | Molecule
2.7 nM | C[C@@H](O)[C@H](NC(=O)[C@H](Cc1ccccc1)NC(=O)[C@@H](NC(=O)[C@H](CCCCN)NC(=O)[C@@H](Cc1c[nH]c2ccccc12)NC(=O)[C@H](Cc1ccc(O)cc1)NC(=O)[C@H](Cc1ccc(Cl)cc1)NC(=O)[C@@H](Cc1ccccc1)NC(=O)C(=O)[C@@H](O)[C@H](O)[C@@H](O)CO)[C@@H](C)O)C(=O)NCCCC[C@H](N)C(=O)NCC(=O)N[C@@H](CS)C(N)=O [(2-ketogulonyl)FD.Cpa.YWD KTFT(ε-K)GC.amide] (X1-[dF][Phe(4-Cl)]Y[dW]KTFT[εLys]GC-NH2)
2 nM | C[C@@H](O)[C@H](NC(=O)[C@H](Cc1ccc2ccccc2c1)NC(=O)[C@@H](NC(=O)[C@H](CCCCN)NC(=O)[C@@H](Cc1c[nH]c2ccccc12)NC(=O)[C@H](Cc1ccc(O)cc1)NC(=O)[C@H](Cc1ccc(Cl)cc1)NC(=O)[C@@H](Cc1ccc2ccccc2c1)NC(=O)CN(CCN(CCN(CC(=O)O)CC(=O)O)CC(=O)O)CC(=O)O)[C@@H](C)O)C(=O)NCCCC[C@H](N)C(=O)NCC(=O)N[C@@H](CS)C(=O)N[C@@H](CCCCN)C(=O)N[C@@H](CCCCN)C(N)=O [(DTPA)NalD.Cpa.YWD KT.Nal.T(ε-K)GCKK.amide] ({DTPA}-[d2Nal][Phe(4-Cl)]Y[dW]KT[2Nal]T[εLys]GCKK-NH2)
1.4 nM | C[C@H](N)C(=O)N[C@@H](CCCCN)C(=O)N[C@@H](CS)C(=O)NCC(=O)NCC(=O)NCC(=O)N[C@H](Cc1ccccc1)C(=O)N[C@@H](Cc1ccc(Cl)cc1)C(=O)N[C@@H](Cc1ccc(O)cc1)C(=O)N[C@H](Cc1c[nH]c2ccccc12)C(=O)N[C@@H](CCCCN)C(=O)N[C@H](C(=O)N[C@@H](Cc1ccccc1)C(=O)N[C@H](C(N)=O)[C@@H](C)O)[C@@H](C)O [AKCGGGFD.Cpa.YWD KTFT.amide] (H-AKCGGG[dF][Phe(4-Cl)]Y[dW]KTFT-NH2)
4.8 nM | C[C@@H](O)[C@H](NC(=O)[C@H](Cc1ccccc1)NC(=O)[C@@H](NC(=O)[C@H](CCCCN)NC(=O)[C@@H](Cc1c[nH]c2ccccc12)NC(=O)[C@H](Cc1ccc(O)cc1)NC(=O)[C@H](Cc1ccc(Cl)cc1)NC(=O)[C@H](N)Cc1ccccc1)[C@@H](C)O)C(=O)N[C@@H](CS)C(=O)NCC(=O)N[C@@H](CS)C(N)=O [FD.Cpa.YWD KTFTCGC.amide] (H-[dF][Phe(4-Cl)]Y[dW]KTFTCGC-NH2)
0.26 nM | CC(C)[C@@H]1NC(=O)[C@H](CCCCN)NC(=O)[C@@H](Cc2c[nH]c3ccccc23)NC(=O)[C@H](Cc2ccc(O)cc2)NC(=O)[C@H](Cc2ccccc2)N(C)C(=O)[C@H](CCSCC(=O)NCC(=O)NCC(=O)N[C@@H](CS)C(=O)N[C@@H](CCCCN)C(=O)N[C@@H](CCCCN)C(N)=O)NC1=O [cyclo(N-Me)FYWD KV.Hcy(CH2 CO.GGCKK.amide)] (I: cyclo([NMeF]Y[dW]KV[hCys]) / II: GGCKK-NH2; linker I:6-II:N via X2)
4.9 nM | KD KKK.NalD.Cpa.YWD KTFT(ε-K)GCKDKD.amide

Molecule | Ki
CC(C)[C@H](NC(=O)[C@H](CCCCN)NC(=O)[C@@H](Cc1c[nH]c2ccccc12)NC(=O)[C@H](Cc1ccc(O)cc1)NC(=O)[C@H](CS)NC(=O)[C@@H](Cc1ccc2ccccc2c1)NC(=O)CN(CCN(CCN(CC(=O)O)CC(=O)N[C@H](Cc1ccc2ccccc2c1)C(=O)N[C@@H](CS)C(=O)N[C@@H](Cc1ccc(O)cc1)C(=O)N[C@H](Cc1c[nH]c2ccccc12)C(=O)N[C@@H](CCCCN)C(=O)N[C@H](C(=O)N[C@@H](CS)C(=O)N[C@H](C(N)=O)[C@@H](C)O)C(C)C)CC(=O)O)CC(=O)O)C(=O)N[C@@H](CS)C(=O)N[C@H](C(N)=O)[C@@H](C)O [(DTPA)(NalD.CYWD KVCT)2] | 7.2 nM
